Results as given in ChEMBL document CHEMBL1201862, “PubChem BioAssay data set” (2004).
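Grown in 96-well plates, cells were treated for 48 hours with each compound at five concentrations. Insufficient inhibition: endpoint recorded as highest concentration tested. GI50 = concentration required for 50% inhibition of growth.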 The source made the active and inactive calls. No stated cut-off is given here; in the data, active = GI50 up to about 1.1 µM and inactive = higher.

Key:
Assay in all cases: inhibition of tumour cell growth, NCI panel, 48 h
SF-295 = system: SF-295
UACC-62 = system: UACC-62
PC-3 = system: PC-3
NCI-H23 = system: NCI-H23
K562 = system: K562
786-0 = system: 786-0
BT-549 = system: BT-549
SNB-19 = system: SNB-19
LOX IMVI = system: LOX IMVI
HCT-116 = system: HCT-116
CAKI-1 = system: CAKI-1
RPMI-8226 = system: RPMI-8226
TK-10 = system: TK-10
SF-268 = system: SF-268
DU-145 = system: DU-145
SR = system: SR
MDA-N = system: MDA-N
U-251 = system: U-251
SNB-75 = system: SNB-75

SMILES	GI50 (SF-295)	GI50 (UACC-62)	GI50 (PC-3)	GI50 (NCI-H23)	GI50 (K562)	GI50 (786-0)	GI50 (BT-549)	GI50 (SNB-19)	GI50 (LOX IMVI)	GI50 (HCT-116)	GI50 (CAKI-1)	GI50 (RPMI-8226)	GI50 (TK-10)	GI50 (SF-268)	GI50 (DU-145)	GI50 (SR)	GI50 (MDA-N)	GI50 (U-251)	GI50 (SNB-75)
O=C1Nc2ccccc2N/C1=C\C(=O)C(F)F	> 100 µM (inactive)	> 100 µM (inactive)	> 100 µM (inactive)	> 100 µM (inactive)	> 100 µM (inactive)	> 100 µM (inactive)	> 100 µM (inactive)	> 100 µM (inactive)	> 100 µM (inactive)	> 100 µM (inactive)	> 100 µM (inactive)	> 100 µM (inactive)	> 100 µM (inactive)	> 100 µM (inactive)	> 100 µM (inactive)	> 100 µM (inactive)	> 100 µM (inactive)	> 100 µM (inactive)	–
CC1(C)N=C(c2ccccc2)SC12S[C@@H]1CCCC[C@H]1S2	> 100 µM (inactive)	> 100 µM (inactive)	> 100 µM (inactive)	14.7 µM (inactive)	> 100 µM (inactive)	–	> 100 µM (inactive)	13.2 µM (inactive)	> 100 µM (inactive)	> 100 µM (inactive)	> 100 µM (inactive)	32.2 µM (inactive)	> 100 µM (inactive)	> 100 µM (inactive)	> 100 µM (inactive)	–	20.7 µM (inactive)	> 100 µM (inactive)	> 100 µM (inactive)
CC(=O)OCOC(=O)CN(CC(=O)OCOC(C)=O)Cc1cc2c(cc1OC(C)=O)Oc1cc(OC(C)=O)c(CN(CC(=O)OCOC(C)=O)CC(=O)OCOC(C)=O)cc1C21OC(=O)c2ccccc21	1.59 µM (inactive)	0.232 µM (active)	1.42 µM (inactive)	0.481 µM (active)	0.122 µM (active)	0.346 µM (active)	0.265 µM (active)	1.27 µM (inactive)	0.299 µM (active)	0.303 µM (active)	2.34 µM (inactive)	–	0.741 µM (active)	1.27 µM (inactive)	1.47 µM (inactive)	0.016 µM (active)	0.309 µM (active)	1.87 µM (inactive)	1.36 µM (inactive)
Cc1ccc(/N=N/c2c(C)c(C#N)c(=S)n(C3OC(CO)C(O)C(O)C3O)c2-c2ccccc2)cc1 (stereo not given)	20.5 µM (inactive)	14.5 µM (inactive)	15 µM (inactive)	16.5 µM (inactive)	8.13 µM (inactive)	21 µM (inactive)	19.6 µM (inactive)	19.6 µM (inactive)	17.2 µM (inactive)	13.2 µM (inactive)	25.7 µM (inactive)	28.9 µM (inactive)	29.5 µM (inactive)	26.7 µM (inactive)	38.6 µM (inactive)	–	8.07 µM (inactive)	14.4 µM (inactive)	20.1 µM (inactive)
N#C/C(=C1\N=C(c2ccccc2O)Oc2ccccc21)c1ccc([N+](=O)[O-])cc1	72.3 µM (inactive)	> 100 µM (inactive)	> 100 µM (inactive)	> 100 µM (inactive)	> 100 µM (inactive)	93.8 µM (inactive)	> 100 µM (inactive)	> 100 µM (inactive)	> 100 µM (inactive)	> 100 µM (inactive)	> 100 µM (inactive)	> 100 µM (inactive)	> 100 µM (inactive)	> 100 µM (inactive)	> 100 µM (inactive)	–	> 100 µM (inactive)	71.9 µM (inactive)	70.6 µM (inactive)
CCOc1ccc(/N=N/C2C(=O)N(C(=O)CC(=O)Nc3ccccc3)N=C2C)cc1 (stereo not given)	> 100 µM (inactive)	39.5 µM (inactive)	> 100 µM (inactive)	78.3 µM (inactive)	–	> 100 µM (inactive)	33.6 µM (inactive)	36.5 µM (inactive)	43.3 µM (inactive)	29.1 µM (inactive)	55.3 µM (inactive)	–	> 100 µM (inactive)	61.8 µM (inactive)	> 100 µM (inactive)	27.4 µM (inactive)	2.68 µM (inactive)	34.8 µM (inactive)	23.1 µM (inactive)
CCOC(=O)c1nc2ccc(C(F)(F)F)cc2[nH]c1=O	> 100 µM (inactive)	> 100 µM (inactive)	> 100 µM (inactive)	> 100 µM (inactive)	> 100 µM (inactive)	> 100 µM (inactive)	> 100 µM (inactive)	> 100 µM (inactive)	> 100 µM (inactive)	> 100 µM (inactive)	> 100 µM (inactive)	> 100 µM (inactive)	> 100 µM (inactive)	> 100 µM (inactive)	> 100 µM (inactive)	> 100 µM (inactive)	> 100 µM (inactive)	> 100 µM (inactive)	–
CC(=O)Nc1nc(NC(C)=O)c2nc(CO)[nH]c2n1	> 100 µM (inactive)	> 100 µM (inactive)	> 100 µM (inactive)	> 100 µM (inactive)	> 100 µM (inactive)	> 100 µM (inactive)	> 100 µM (inactive)	> 100 µM (inactive)	> 100 µM (inactive)	> 100 µM (inactive)	> 100 µM (inactive)	–	> 100 µM (inactive)	> 100 µM (inactive)	> 100 µM (inactive)	> 100 µM (inactive)	> 100 µM (inactive)	> 100 µM (inactive)	> 100 µM (inactive)
COc1ccc2c(c1)/C(=C\c1c(C)nc3sc(C)cn13)C(=O)N2	0.309 µM (active)	0.274 µM (active)	0.385 µM (active)	2.31 µM (inactive)	0.446 µM (active)	2.32 µM (inactive)	1.66 µM (inactive)	3.33 µM (inactive)	1.87 µM (inactive)	0.498 µM (active)	2.13 µM (inactive)	0.581 µM (active)	3.18 µM (inactive)	2.35 µM (inactive)	4.83 µM (inactive)	0.409 µM (active)	0.124 µM (active)	0.217 µM (active)	–
NC(=S)Nc1c(S(N)(=O)=O)cc(S(N)(=O)=O)c(Cl)c1Cl	> 100 µM (inactive)	> 100 µM (inactive)	> 100 µM (inactive)	> 100 µM (inactive)	> 100 µM (inactive)	> 100 µM (inactive)	> 100 µM (inactive)	> 100 µM (inactive)	> 100 µM (inactive)	> 100 µM (inactive)	> 100 µM (inactive)	> 100 µM (inactive)	> 100 µM (inactive)	> 100 µM (inactive)	> 100 µM (inactive)	–	> 100 µM (inactive)	> 100 µM (inactive)	> 100 µM (inactive)
Cc1c2c(Cl)c3c(c(Cl)c2c(C)c2c(Cl)c4c(c(Cl)c12)C(c1ccccc1)(c1ccccc1)C4(c1ccccc1)c1ccccc1)C(c1ccccc1)(c1ccccc1)C3(c1ccccc1)c1ccccc1	> 100 µM (inactive)	> 100 µM (inactive)	> 100 µM (inactive)	> 100 µM (inactive)	> 100 µM (inactive)	> 100 µM (inactive)	> 100 µM (inactive)	> 100 µM (inactive)	> 100 µM (inactive)	> 100 µM (inactive)	> 100 µM (inactive)	–	> 100 µM (inactive)	> 100 µM (inactive)	> 100 µM (inactive)	> 100 µM (inactive)	> 100 µM (inactive)	> 100 µM (inactive)	> 100 µM (inactive)
CCCCOc1ccc(S(=O)(=O)N/C(=N\O)Nc2ccc(Cl)cc2)cc1	16.9 µM (inactive)	15.2 µM (inactive)	15.8 µM (inactive)	14.7 µM (inactive)	18.3 µM (inactive)	15.8 µM (inactive)	13.4 µM (inactive)	15.2 µM (inactive)	16 µM (inactive)	16.9 µM (inactive)	10.8 µM (inactive)	21.1 µM (inactive)	15 µM (inactive)	16 µM (inactive)	15.9 µM (inactive)	11 µM (inactive)	17.7 µM (inactive)	15.5 µM (inactive)	–
C/C=C1/CN2CCC34c5ccccc5N(C)C23C2CC1C4(C(=O)OC)C(O)O2 (stereo not given)	> 100 µM (inactive)	> 100 µM (inactive)	> 100 µM (inactive)	> 100 µM (inactive)	> 100 µM (inactive)	> 100 µM (inactive)	> 100 µM (inactive)	> 100 µM (inactive)	> 100 µM (inactive)	> 100 µM (inactive)	> 100 µM (inactive)	> 100 µM (inactive)	> 100 µM (inactive)	> 100 µM (inactive)	> 100 µM (inactive)	–	> 100 µM (inactive)	> 100 µM (inactive)	> 100 µM (inactive)
NC(=O)c1cccc(OCC(O)CO)c1 (stereo not given)	> 100 µM (inactive)	> 100 µM (inactive)	> 100 µM (inactive)	> 100 µM (inactive)	> 100 µM (inactive)	> 100 µM (inactive)	> 100 µM (inactive)	> 100 µM (inactive)	–	> 100 µM (inactive)	> 100 µM (inactive)	–	> 100 µM (inactive)	> 100 µM (inactive)	> 100 µM (inactive)	> 100 µM (inactive)	> 100 µM (inactive)	> 100 µM (inactive)	> 100 µM (inactive)
COc1ccc2c(c1OC)C(=O)N/C2=C\c1c(CCN(C)C)cc2c(c1OC)OCO2	43.7 µM (inactive)	–	> 100 µM (inactive)	> 100 µM (inactive)	68.7 µM (inactive)	> 100 µM (inactive)	> 100 µM (inactive)	> 100 µM (inactive)	–	83.2 µM (inactive)	–	> 100 µM (inactive)	> 100 µM (inactive)	> 100 µM (inactive)	> 100 µM (inactive)	> 100 µM (inactive)	25.6 µM (inactive)	> 100 µM (inactive)	< 0.01 µM (active)
